The record followed here is patent US11324725B2, “Compositions and methods for the inhibition of pruritus” (The United States of America, as represented by the …, priority 2017, dated 2022).

Each structure is given as a SMILES string. Entries after “also recorded” stand apart in the source; their conditions may differ.

Data set [1] in a line: Kinetic solubility assay (μSOL). In kind it is physicochemical. The note with it: pH 7.4. As to the method:
The μSOL assay was used for kinetic solubility determination, as described in Avdeef, et al., “Drug absorption in vitro model: filter-immobilized artificial membranes. 2. Studies of the permeability properties of lactones in Piper methysticum Forst,” Eur J Pharm Sci 14, 271-280 (2001), which is incorporated by reference herein. In this assay, the classical saturation shake-flask solubility method was adapted as described. Test compounds were prepared as 10 mM DMSO stock solutions and diluted to a final compound concentration of 150 μM in aqueous solution (pH 7.4, 100 mM phosphate buffer). Samples were incubated at room temperature for 6 hours and vacuum-filtered using Te-Vac (Tecan, Morrisville, N.C.) to remove any precipitates. The concentration of the compound in the filtrate was measured via UV absorbance (k 250-498 nm). The unknown compound concentration was determined by comparing the fully solubilized reference plate which contained 17 μM of compound dissolved in spectroscopically pure n-propanol. All compounds were tested in duplicates. The kinetic solubility (μg/mL) of compounds was calculated using the pSOL Evolution software (Pion Inc., Billerica, Mass.). The three controls used were albendazole (low solubility), phenazolpyridine (moderate solubility) and furosemide (high solubility).

A short description of data set [2]: Parallel artificial membrane permeability assay (PAMPA). The note with it: pH 7.4. In kind it is in vitro ADME. An excerpt:
Stirring double-sink PAMPA method was employed to determine the permeability of compounds via PAMPA. The PAMPA lipid membrane consisted of an artificial membrane of a proprietary lipid mixture and dodecane (Pion Inc., Billerica, Mass.), optimized to predict gastrointestinal tract passive permeability. The lipid was immobilized on a plastic matrix of a 96-well “donor” filter plate placed above a 96-well “acceptor” plate. pH 7.4 solution was used in both donor and acceptor wells. The test articles, stocked in 10 mM DMSO solutions, were diluted to 0.05 mM in aqueous buffer (pH 7.4), and the concentration of DMSO was 0.5% in the final solution. During the 30-minute permeation period at room temperature, the test samples in the donor compartment were stirred using the Gutbox technology (Pion Inc.) to reduce the aqueous boundary layer. The test article concentrations in the donor and acceptor compartments were measured using a UV plate reader (Nano Quant, Infinite® 200 PRO, Tecan). Permeability calculations were performed using Pion Inc. software and were expressed in units of 10-6 cm/s. Compounds with low or weak UV signal were analyzed using high resolution LC/MS (Thermo QExactive, Thermo Fisher).

Data set [3] in a line: Rat liver microsome stability assay. To be noted: pH 7.4; rat liver microsomes. The data set is classed as in vitro ADME. As to the method:
Single time point microsomal stability was determined in a 96-well HTS format. Sample preparation was automated using an EVO 200 robot (Tecan, Switzerland). A high-resolution LC/MS (Thermo QExactive, ThermoFisher (Waltham, Mass.)) instrument was used to measure the percentage of compound remaining after incubation using a known method. Six standard controls were tested in each run: buspirone and propranolol (for short half-life), loperamide and diclofenac (for short to medium half-life), and carbamazepine and antipyrine (for long half-life). Briefly, the incubation consisted of 0.5 mg/mL microsomal protein, 1.0 μM compound concentration, and NADPH regeneration system (containing 0.650 mM NADP+, 1.65 mM glucose 6-phosphate, 1.65 mM MgCl2, and 0.2 U/mL G6PDH) in 100 mM phosphate buffer at pH 7.4. The incubation was carried out at 37° C. for 15 min. The reaction was quenched by adding 555 μL of acetonitrile (1:2 ratio) containing 0.28 μM albendazole (internal standard).

Data set [4] concerns C57BL/6N mice. The experiment in a line: Acute scratching behavior, histamine-induced. In kind it is in vivo, mouse. The note with it: 163 μg i.p., 10 minutes before 100 μg histamine into nape of neck; bouts per 30 minutes. As to the method: (§1) All experiments using mice followed NIH guidelines and were approved by the National Institute of Dental and Craniofacial Research ACUC. Behavioral assessment of scratching behavior was conducted as follows: 6-8-week old female C57BL/6N mice (Envigo) were injected intraperitoneally with JS-11 (163 μg) or DMSO (20%) as a vehicle control. Ten minutes later, 100 μg histamine diluted in 10 μl PBS or 8.9 μg CYM5442 diluted in 10 μl ddH2O was injected subcutaneously into the nape of the neck. Scratching behavior was recorded for 30 minutes and is presented in bouts per 30 minutes. One bout was defined as scratching behavior towards the injection site between lifting the hind leg from the ground and either putting it back on the ground or guarding the paw with the mouth. To control for motor impairment by JS-11, rota-rod performance was also assessed 10 minutes after intraperitoneal injection.

The subject of data set [5] is C57BL/6N mice. As to the kind of experiment: Acute scratching behavior, CYM5442-induced. The data set is classed as in vivo, mouse. The note with it: 163 μg i.p., 10 minutes before 8.9 μg CYM5442 into nape of neck; bouts per 30 minutes. The procedure:
as §1

The subject of data set [6] is C57BL/6N mice. As to the kind of experiment: Rotarod performance and gross behavior after JS-11. The data set is classed as in vivo, mouse. The procedure: as §1
In data set [7] the test system is C57BL/6N mice. As to the kind of experiment: Contact hypersensitivity (DNFB) model of chronic scratching. The data set is classed as in vivo, mouse. The note with it: 163 μg i.p. The procedure: The contact hypersensitivity model was performed as follows: the back of 6-8-week old female C57BL/6N mice (Envigo) was shaved with electric clippers. After 2 days, 25 μl of 0.5% (v/v) dinitro-fluoro-benzene (DNFB) diluted in a 4:1 mixture of acetone and olive oil was applied to the shaved back skin. Hapten challenge was performed 5 days after sensitization by applying 40 μl of 0.2% (v/v) DNFB in the same vehicle on the left ear and 40 μl of vehicle alone on the right ear. […] Mice were then injected intraperitoneally with JS-11 (163 μg) or DMSO (20%) as a vehicle control. After 10 minutes, scratching was again observed for 30 minutes. To assess skin inflammation, ear thickness was measured with a thickness gauge (Mitutoyo, Aurora, Ill.) before and 30 minutes after JS-11/DMSO injections and normalized to ear thickness before hapten challenge.

Take `Cc1cc(CNC(=O)c2ccc3c(c2)n(CC2CC2)c(=O)n3C2CCCCC2)on1` [JS-11, 1-cyclohexyl-3-(cyclopropylmethyl)-N-((3-methylisoxazol-5-yl)methyl)-2-oxo-2,3-dihydro-1H-benzo[d]imidazole-5-carboxamide]: the water solubility entry in data set [1] was “relatively high-water solubility”. In data set [2], this compound yielded a Papp at 30 min, 0.05 mM of 7.4 ×10⁻⁶ cm/s. In data set [3], this compound gave a half-life at 1 μM of 12.4 min. The “Scratching responses to histamine” value in data set [4] is “reduced scratching responses to histamine by more than half; also recorded: significantly attenuated”. Also, the “Scratching responses to CYM5442” value in data set [5] is given as “strongly attenuated itch response; also recorded: significantly attenuated”. Also, the Overall mouse behavior entry in data set [6] (163 μg intraperitoneally) is reported as “no gross change in overall mouse behavior”. Further, the “Motor coordination (rotarod performance)” value in data set [6] (10 minutes after 163 μg JS-11 intraperitoneally) is listed as “no impairment of motor coordination; also recorded: not significantly altered”. Besides, in data set [7] (measured before and 30 minutes after injection), the “Skin inflammation (% ear thickness) after hapten challenge” value is given as “had no effect on skin inflammation; also recorded: no differences in % ear thickness were detectable”. Also, the Hapten-induced scratching responses entry in data set [7] (scratching observed 30 minutes, from 10 minutes after injection) is “attenuated hapten-induced scratching responses by about a half; also recorded: significantly reduced”.
